Results: article PMC6767204, “Synthesis and Biological Evaluation of Disubstituted Pyrimidines as Selective 5-HT2C Agonists” (Molecules, 2019)
Where a name gives a salt, the structure may show the parent alone. Read-outs that look alike come from different tables or passages of the source.

How the values were obtained:
5-HT2C receptor [1] = biological target: T1, 5-HT2C receptor (Homo sapiens, UniProt P28335); experiment: 5-HT2C receptor cell-based functional assay (agonist mode, fluorescence-based); details: for %activation: Table 2, serotonin as reference compound
T1 sequence (P28335 33-458): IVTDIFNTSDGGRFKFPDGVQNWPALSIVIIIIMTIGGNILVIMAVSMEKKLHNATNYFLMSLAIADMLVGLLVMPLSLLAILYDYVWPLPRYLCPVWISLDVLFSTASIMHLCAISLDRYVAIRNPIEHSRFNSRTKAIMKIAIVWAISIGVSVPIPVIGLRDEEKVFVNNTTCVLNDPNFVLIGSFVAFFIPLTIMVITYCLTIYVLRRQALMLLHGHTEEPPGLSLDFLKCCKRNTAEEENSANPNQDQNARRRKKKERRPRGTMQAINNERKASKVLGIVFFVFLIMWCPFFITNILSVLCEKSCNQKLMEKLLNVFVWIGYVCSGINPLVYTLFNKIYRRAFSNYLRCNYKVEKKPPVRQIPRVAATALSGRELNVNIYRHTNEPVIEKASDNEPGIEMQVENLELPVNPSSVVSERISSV
Method: The synthesized compounds were tested in agonist mode with the 5-HT2C receptor assay using recombinant human HEK-293 cells serviced by either Eurofins Cerep or DGMIF (Daegu-Gyeongbuk Medical Innovation Foundation). All the experiments were duplicated.

5-HT2C receptor [2] = biological target: T1, 5-HT2C receptor; experiment: 5-HT receptor radioligand binding affinity assay, 2C; design: expressed in transfected cells; details: Table 2
Method: Eleven dilutions (5 x assay concentration) of the test and reference compounds (Table S1) were prepared in standard binding buffer (50 mM tris(hydroxymethyl)-aminomethane–HCl (Tris-HCl), 10 mM MgCl2, 1 mM ethylenediaminetetraacetate (EDTA), pH 7.4) by serial dilution: 0.05 nM, 0.5 nM, 1.5 nM, 5 nM, 15 nM, 50 nM, 150 nM, 500 nM, 1.5 μM, 5 μM, and 50 μM. The radioligand (Table S1) was diluted to five times the assay concentration in standard binding buffer. Aliquots (50 μL) of the radioligand were dispensed into the wells of a 96-well plate containing 100 μL of standard binding buffer. Triplicate aliquots (50 μL) of the test and reference compound dilutions were then added. Finally, crude membrane fractions (50 μL) of cells (HEK293 or CHO) expressing human recombinant receptors were dispensed into each well. A total 250 μL of the reaction mixtures was incubated at room temperature and shielded from light for 1.5 h, then harvested by rapid filtration onto Whatman GF/B glass fiber filters presoaked with 0.3% polyethyleneimine, by using a 96-well Brandel harvester.
Four rapid washes were performed with chilled standard binding buffer (500 μL) to decrease nonspecific binding. Filters were placed in 6 mL scintillation tubes and allowed to dry overnight. The next day, 4 ml of EcoScint scintillation cocktail (National Diagnostics) was added to each tube. The tubes were capped, labeled, and counted by liquid scintillation counting. The filter mats were dried, and the scintillant was melted onto the filters, then the radioactivity retained on the filters was counted in a Microbeta scintillation counter. The IC50 values were obtained by using the Prism 4.0 program (GraphPad Software, San Diego, CA) and converted into Ki values. Each compound was tested in triplicate at least.
3. Radioligands and reference compounds for binding assay
Table S1. A list of 5-HT receptor radioligands and reference compounds for binding assay.
Receptor subtype Radioligand Reference compound
1A [3H]8-OH-DPAT Methysergide
2A [3H]Ketanserin Chlorpromazine
2C [3H]Mesulergine Chlorpromazine

[3] = HEK293, read-out: %activation (10 μM), 10 μM, recombinant human HEK-293 cells, Table 1
[4] = HEK293, read-out: %activation (10 μM)

Fc1cccc(COc2cnc(N3CCNCC3)nc2)c1 [9b, 4-(5-((3-fluorobenzyl)oxy)pyrimidin-2-yl)piperazin-1-ium∙hydrochloride]
activation at 10 µM (5-HT2C receptor [1]; [3]): > 50%

Fc1cccc(COc2cnc(N3CCCNCC3)nc2)c1 [9n, 4-(5-((3-fluorobenzyl)oxy)pyrimidin-2-yl)-1,4-diazepan-1-ium∙hydrochloride]
activation at 10 µM (5-HT2C receptor [1]; [4]): -1%

C[C@H]1CNCCc2ccc(Cl)cc21 [Lorcaserin (1), Lorcaserin, reference compound]
%activation value at 1 μM (5-HT2C receptor [1]; 1 μM, Table 1 footnote a): 94^a %

C[C@@H]1CNCCN1c1ncc(OCc2cccc(F)c2)cn1 [9h, (R)-4-(5-((3-fluorobenzyl)oxy)pyrimidin-2-yl)-3-methylpiperazine-1-ium∙hydrochloride]
activation at 10 µM (5-HT2C receptor [1]; [4]): 48%

C[C@@H](Oc1nc(N[C@@H]2CCNC2)ncc1F)c1ccc(F)cc1 [10i, 5-fluoro-4-((R)-1-(4-fluorophenyl)ethoxy)-N-((R)-pyrrolidin-3-yl)pyrimidin-2-amine]
Ki (5-HT2C receptor [2]): 120 nM

C[C@@H](Oc1nc(N[C@H]2CCNC2)ncc1F)c1ccc(F)cc1 [10j, 5-Fluoro-4-((R)-1-(4-fluorophenyl)ethoxy)-N-((S)-pyrrolidin-3-yl)pyrimidin-2-amine]
%activation (5-HT2C receptor [1]): 0.1%

C[C@@H](Oc1nc(N[C@H]2CCNC2)ncc1F)c1cccc(F)c1 [10e, 5-fluoro-4-((R)-1-(3-fluorophenyl)ethoxy)-N-((S)-pyrrolidin-3-yl)pyrimidin-2-amine]
Ki (5-HT2C receptor [2]): 1260 nM | %activation (5-HT2C receptor [1]): 7.7%

C[C@@H]1CNCCN1c1ncc(OCCc2cccc(F)c2)cn1 [9i]
activation at 10 µM (5-HT2C receptor [1]; [4]): 40%

C[C@@H](Oc1nc(N2CCC3(CCNC3)C2)ncc1F)c1ccc(F)cc1 (stereo partly drawn) [10g, 2-(5-fluoro-4-((R)-1-(4-fluorophenyl)ethoxy)pyrimidin-2-yl)-2,7-diazaspiro[4.4]nonane]
Ki (5-HT2C receptor [2]): 232 nM

Fc1ccc(CCOc2cnc(N3CCCNCC3)nc2)cc1 [9r]
activation at 10 µM (5-HT2C receptor [1]; [4]): -1%

Fc1cccc(Oc2cnc(N3CCNCC3)nc2)c1 [9a]
activation at 10 µM (5-HT2C receptor [1]; [3]): 7%

C[C@@H]1CNCCN1c1ncc(Oc2ccc(F)cc2)cn1 [9j]
activation at 10 µM (5-HT2C receptor [1]; [4]): 26%

Fc1ccc(Oc2cnc(N3CCNCC3)nc2)cc1 [9d]
activation at 10 µM (5-HT2C receptor [1]; [3]): 5%

C[C@@H](Oc1nc(N[C@@H]2CCNC2)ncc1F)c1cccc(F)c1 [10d, 5-fluoro-4-((R)-1-(3-fluorophenyl)ethoxy)-N-((R)-pyrrolidin-3-yl)pyrimidin-2-amine]
Ki (5-HT2C receptor [2]): 119 nM | %activation (5-HT2C receptor [1]): 16.4%
